How the values were obtained:
Type in all cases: biochemical
[1] = biological target: T1, KRAS G12S (Homo sapiens, UniProt P01116, G12S); assay: HTRF KRAS-SOS1 interaction assay, KRAS G12S; conditions: binned ≤2 μM / >2 μM, read-out: Inhibition of KRAS G12S (IC50)
T1 construct: made in house; host or cells: E. coli, e.g. BL21 (DE3)
Summary of the method: (§1)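 GST-KRAS + anti-GST-Eu; His-hSOS1 + anti-6His-XL665; cpd in DMSO, duplicate, 10–0.01 μM; ~10 min incubation; HTRF ex 337/em 620, 665 nm; IC50 fitted on 665/620 ratio.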

[2] = biological target: T2, KRAS G12D (Homo sapiens, UniProt P01116, G12D); assay: HTRF KRAS-SOS1 interaction assay, KRAS G12D; conditions: binned ≤2 μM / >2 μM, read-out: Inhibition of KRAS G12D (IC50)
T2 construct: made in house; host or cells: E. coli, e.g. BL21 (DE3)
T2 sequence (P01116 1-188 isoform P01116-2 G12D): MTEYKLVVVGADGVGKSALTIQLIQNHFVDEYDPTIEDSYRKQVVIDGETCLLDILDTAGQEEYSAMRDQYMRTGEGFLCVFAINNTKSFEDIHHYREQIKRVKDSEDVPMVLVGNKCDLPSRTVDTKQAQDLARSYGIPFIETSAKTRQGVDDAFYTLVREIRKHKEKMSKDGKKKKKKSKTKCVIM
Summary of the method: as §1

[3] = biological target: T3, KRAS WT (Homo sapiens, UniProt P01116); assay: HTRF KRAS-SOS1 interaction assay, wildtype KRAS; conditions: binned ≤2 μM / >2 μM, read-out: Inhibition of KRAS WT (IC50)
T3 construct: made in house; host or cells: E. coli, e.g. BL21 (DE3)
T3 sequence (P01116 1-188 isoform P01116-2): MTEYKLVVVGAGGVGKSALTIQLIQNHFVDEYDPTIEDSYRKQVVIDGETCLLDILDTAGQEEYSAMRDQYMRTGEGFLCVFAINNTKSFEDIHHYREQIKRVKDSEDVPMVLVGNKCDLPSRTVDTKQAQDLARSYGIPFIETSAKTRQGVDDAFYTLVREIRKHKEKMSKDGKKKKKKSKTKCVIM
Summary of the method: as §1

[4] = biological target: T4, KRAS G12V (Homo sapiens, UniProt P01116, G12V); assay: HTRF KRAS-SOS1 interaction assay, KRAS G12V; conditions: binned ≤2 μM / >2 μM, read-out: Inhibition of KRAS G12V (IC50)
T4 construct: made in house; host or cells: E. coli, e.g. BL21 (DE3)
T4 sequence (P01116 1-188 isoform P01116-2 G12V): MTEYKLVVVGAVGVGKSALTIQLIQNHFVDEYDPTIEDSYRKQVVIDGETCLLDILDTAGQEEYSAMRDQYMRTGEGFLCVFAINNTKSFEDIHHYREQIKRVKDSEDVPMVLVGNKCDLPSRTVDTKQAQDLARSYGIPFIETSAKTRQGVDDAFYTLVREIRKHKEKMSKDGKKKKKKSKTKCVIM
Summary of the method: as §1

T1 sequence (P01116 1-188 isoform P01116-2 G12S): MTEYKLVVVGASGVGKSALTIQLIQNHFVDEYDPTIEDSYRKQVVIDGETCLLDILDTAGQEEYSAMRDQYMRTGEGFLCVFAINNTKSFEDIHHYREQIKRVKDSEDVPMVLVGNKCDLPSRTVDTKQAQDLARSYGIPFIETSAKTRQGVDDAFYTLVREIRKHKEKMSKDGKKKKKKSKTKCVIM

IC50 [1] [nM]	IC50 [2] [nM]	IC50 [3] [nM]	IC50 [4] [nM]	Structure (SMILES)
≤ 2000	≤ 2000	≤ 2000	≤ 2000	C[C@H](c1cccnc1N)N1c2nc(OC[C@@]34CCCN3C[C@H](F)C4)nc3c(F)c(-c4ccc(F)c5sc(N)c(C#N)c45)c(Cl)c(c23)OC[C@@H]1C [Compound 800, 2-amino-4-((5S)-4-((R)-1-(2-aminopyridin-3-yl)ethyl)-8-chloro-10-fluoro-2-(((2R,7aS)-2-fluorotetrahydro-1H-pyrrolizin-7a(5H)-yl)methoxy)-5-methyl-5,6-dihydro-4H-[1,4]oxazepino[5,6,7-de]quinazolin-9-yl)-7-fluorobenzo[b]thiophene-3-carbonitrile]
≤ 2000	≤ 2000	≤ 2000	≤ 2000	COc1ccc([C@@H](C)N2CCOc3c(Cl)c(-c4ccc(F)c5sc(N)c(C#N)c45)c(F)c4nc(OC[C@@]56CCCN5C[C@H](F)C6)nc2c34)c(N)n1 [Compound 706, 2-amino-4-(4-((R)-1-(2-amino-6-methoxypyridin-3-yl)ethyl)-8-chloro-10-fluoro-2-(((2R,7aS)-2-fluorotetrahydro-1H-pyrrolizin-7a(5H)-yl)methoxy)-5,6-dihydro-4H-[1,4]oxazepino[5,6,7-de]quinazolin-9-yl)-7-fluorobenzo[b]thiophene-3-carbonitrile]

The remaining lines, values behind:

Structure (SMILES)	IC50 [1] [nM]	IC50 [2] [nM]	IC50 [3] [nM]	IC50 [4] [nM]
N#Cc1c(N)sc2c(F)ccc(-c3c(C(F)(F)F)c4c5c(nc(OC[C@@]67CCCN6C[C@H](F)C7)nc5c3F)N([C@H](CCn3cccn3)c3cccnc3N)CCO4)c12 [Compound 829, 2-amino-4-(4-((R)-1-(2-aminopyridin-3-yl)-3-(1H-pyrazol-1-yl)propyl)-10-fluoro-2-(((2R,7aS)-2-fluorotetrahydro-1H-pyrrolizin-7a(5H)-yl)methoxy)-8-(trifluoromethyl)-5,6-dihydro-4H-[1,4]oxazepino[5,6,7-de]quinazolin-9-yl)-7-fluorobenzo[b]thiophene-3-carbonitrile]	≤ 2000	≤ 2000	≤ 2000	≤ 2000
N#Cc1c(N)sc2c(F)ccc(-c3c(C(F)(F)F)c4c5c(nc(OC[C@@]67CCCN6CC(=C(F)F)C7)nc5c3F)N([C@H](CC3CCOCC3)c3cccnc3N)CCO4)c12 [Compound 781, 2-amino-4-(4-((R)-1-(2-aminopyridin-3-yl)-2-(tetrahydro-2H-pyran-4-yl)ethyl)-2-(((S)-2-(difluoromethylene)tetrahydro-1H-pyrrolizin-7a(5H)-yl)methoxy)-10-fluoro-8-(trifluoromethyl)-5,6-dihydro-4H-[1,4]oxazepino[5,6,7-de]quinazolin-9-yl)-7-fluorobenzo[b]thiophene-3-carbonitrile]	≤ 2000	≤ 2000	≤ 2000	≤ 2000
N#Cc1c(N)sc2c(F)ccc(-c3c(C(F)(F)F)c4c5c(nc(OC[C@@]67CCCN6C[C@H](F)C7)nc5c3F)N([C@H](CCC3CC(F)(F)C3)c3cccnc3N)CCO4)c12 (single isomer, unassigned) [Compound 689]	≤ 2000	> 2000	≤ 2000	≤ 2000
C[C@H](c1cccnc1N)N1CCOc2c(C(F)(F)F)c(-c3ccc(F)c4sc(N)c(C#N)c34)c(F)c3nc(OC[C@@]45CCCN4CC(=C(F)F)C5)nc1c23 [Compound 856, 2-amino-4-(4-((R)-1-(2-aminopyridin-3-yl)ethyl)-2-(((S)-2-(difluoromethylene)tetrahydro-1H-pyrrolizin-7a(5H)-yl)methoxy)-10-fluoro-8-(trifluoromethyl)-5,6-dihydro-4H-[1,4]oxazepino[5,6,7-de]quinazolin-9-yl)-7-fluorobenzo[b]thiophene-3-carbonitrile]	≤ 2000	≤ 2000	≤ 2000	≤ 2000
